Data from patent publication US9145415B2, “Nitrogen-containing heterocyclic compound or salt thereof” (FUJIFILM Corporation, priority 2012, dated 2015).
Where two headings read alike, the source gives them in different places.

Experiments:
Molm-13 cells = assay: Leukemia cell proliferation inhibition test (ATPlite), Molm-13; type: cell-based; conditions: read-out: MOLM13 cell proliferation inhibition effect
Procedure, shortened: (§1)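 Molm-13 or MV4-11 cells in RPMI with 10% FBS and pen/strep, seeded at 10,000 cells per well, were exposed to serially diluted compound for 72 hours at 37° C, 5% CO2. Total cellular ATP was read by luciferase luminescence. GI50 came from sigmoid fits against the 0.1% DMSO control, in duplicate.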

[1] = molecular target: T1, human FLT3 protein (FLT3 (WT)) (Homo sapiens, UniProt P36888); assay: FLT3 inhibition test (FLT3 enzyme inhibition, time-resolved fluorescence of substrate peptide phosphorylation); type: biochemical
T1 construct: human FLT3 protein (intracellular region, 564 to 993 aa); GST; purchased Carna Biosciences; host or cells: baculovirus expression system
T1 sequence (P36888 564-993): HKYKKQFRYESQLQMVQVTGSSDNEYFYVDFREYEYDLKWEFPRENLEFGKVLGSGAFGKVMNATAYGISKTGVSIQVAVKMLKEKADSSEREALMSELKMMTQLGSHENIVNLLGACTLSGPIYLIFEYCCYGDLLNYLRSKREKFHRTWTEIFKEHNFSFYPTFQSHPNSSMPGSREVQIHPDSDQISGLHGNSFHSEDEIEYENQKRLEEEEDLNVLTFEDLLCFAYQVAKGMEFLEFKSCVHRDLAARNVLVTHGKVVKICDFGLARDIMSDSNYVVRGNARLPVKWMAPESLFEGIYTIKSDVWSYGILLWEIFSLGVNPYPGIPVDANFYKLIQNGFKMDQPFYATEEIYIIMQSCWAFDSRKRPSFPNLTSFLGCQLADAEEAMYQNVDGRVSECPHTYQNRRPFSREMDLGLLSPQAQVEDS
Procedure, shortened: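 Substrate peptide phosphorylation detected by time-resolved fluorescence after a 30 min kinase reaction at 25° C with 50 μM ATP (final). Beforehand, compound and FLT3 (WT, 1.2 μg) stood 15 min at 25° C in HEPES buffer pH 7.5 containing MgCl2, NaCl, BSA and DTT.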

MV4-11 cells = assay: Leukemia cell proliferation inhibition test (ATPlite), MV4-11; type: cell-based; conditions: read-out: MV4-11 cell proliferation inhibition effect
Procedure, shortened: as §1

[2] = Homo sapiens, MOLM-13, 72 h, Molm-13, 72 hours culture, ATPlite, GI50 per method
[3] = GST-fused human FLT3 (564 to 993 aa), ATP 50 μM, read-out: FLT3 (WT) enzyme inhibition activity
[4] = Homo sapiens, MV4-11, 72 h, MV4-11, 72 hours culture, ATPlite, GI50 per method
[5] = Homo sapiens, MOLM-13, MOLM13 cell
[6] = FLT3 (WT), read-out: FLT3 (WT) enzyme inhibition activity
[7] = Homo sapiens, MV4-11, MV4-11 cell

Structure (SMILES) | IC50 (Molm-13 cells; [2]) [nM] | IC50 [1, 3] [nM] | IC50 (MV4-11 cells; [4]) [nM] | other results
CCCNc1nc(Nc2ccc(C(N)=O)cc2)ncc1C(=O)NCCCNc1ncccc1NC(=O)/C=C/CN(C)C [Compound 3-29] | 10 to 100 | < 10 | 10 to 100 | –
CCCNc1nc(Nc2cccc(F)c2)ncc1C#CCCCNC(=O)[C@@H]1C[C@@H](O)CN1C(=O)/C=C/CN(C)C [Compound 7-66, (2S,4R)-1-((E)-4-(Dimethylamino)-2-butenoyl)-N-(5-(2-((3-fluorophenyl)amino)-4-(propylamino)pyrimidin-5-yl)-4-pentyn-1-yl)-4-hydroxypyrrolidine-2-carboxamide] | < 10 | < 10 | < 10 | –
CCCNc1nc(Nc2ccc(C(N)=O)cc2)ncc1C(=O)Nc1cccc(NC(=O)[C@H](C)N(C)C(=O)/C=C/CNCCF)c1 [Compound 4-10] | < 10 | – | < 10 | IC50 ([1]; FLT3 (WT) enzyme inhibition activity, GST-fused human FLT3 (564 to 993 aa), ATP 50 μM): < 10 nM
C[C@@H](C(=O)N[C@H]1CCC[C@@H](C#Cc2cnc(Nc3ccc(C#N)cc3)nc2NC2CC2)C1)N(C)C(=O)/C=C/CN(C)C [Compound 7-35] | < 10 | < 10 | < 10 | –
CNc1nc(Nc2ccc(OC)c(F)c2)ncc1C#CCCCNC(=O)[C@@H]1CCCN1C(=O)/C=C/CN(C)C [Compound 21-42] | – | – | – | IC50 (Molm-13 cells; [5]): < 10 nM; IC50 [1, 6]: < 10 nM; IC50 (MV4-11 cells; [7]): < 10 nM
CCCNc1nc(Nc2cccc(F)c2)ncc1C#Cc1cccc(NC(=O)[C@H](C)N(C)C(=O)/C=C/CN(C)C)c1 [Compound 8-1, (S,E)-4-(dimethylamino)-N-(1-((3-((2-((3-fluorophenyl)amino)-4-(propylamino)pyrimidin-5-yl)ethynyl)phenyl)amino)-1-oxopropan-2-yl)-N-methyl-2-butenamide] | < 10 | < 10 | < 10 | –
CCCNc1nc(Nc2cccc(-n3cccn3)c2)ncc1C#CCCCNC(=O)[C@H](C)N(C)C(=O)/C=C/CN(C)C [Compound 22-18] | – | – | – | IC50 (Molm-13 cells; [5]): < 10 nM; IC50 [1, 6]: < 10 nM; IC50 (MV4-11 cells; [7]): < 10 nM
CCCNc1nc(Nc2ccc3cnn(CCOC)c3c2)ncc1C#CCCCNC(=O)[C@@H]1CCCN1C(=O)/C=C/CN(C)C [Compound 22-33] | – | – | – | IC50 (Molm-13 cells; [5]): < 10 nM; IC50 [1, 6]: < 10 nM; IC50 (MV4-11 cells; [7]): < 10 nM
CCCNc1nc(Nc2cc(C)no2)ncc1C#CCCCNC(=O)[C@H](C)N(C)C(=O)/C=C/CN(C)C [Compound 7-78] | 10 to 100 | < 10 | < 10 | –
CCCNc1nc(Nc2cccc(F)c2)ncc1C#CCCCNC(=O)[C@H]1CCCN1C(=O)/C=C/CN(C)C [Compound 7-94] | 10 to 100 | 10 to 100 | 10 to 100 | –
CCCNc1nc(NCCc2ccncc2)ncc1C(=O)Nc1cccc(NC(=O)CNC(=O)/C=C/CN2CCN(CCO)CC2)c1 [Compound 2-16] | 100 to 1000 | < 10 | 10 to 100 | –
CCCNc1nc(Nc2ccc(C#N)cc2)ncc1C#CCCCNC(=O)CN(CC)C(=O)/C=C/CN(C)C [Compound 7-39] | < 10 | < 10 | < 10 | –
CCCNc1nc(NCCc2ccncc2)ncc1C(=O)Nc1cccc(NC(=O)CNC(=O)/C=C/CN2CCOCC2)c1 [Compound 2-13] | 10 to 100 | < 10 | 10 to 100 | –
C=CC(=O)N(C)CC(=O)Nc1cccc(NC(=O)c2cnc(NCCc3ccncc3)nc2NCCC)c1 [Compound 1-3] | < 10 | < 10 | < 10 | –
CCCNc1nc(Nc2ccc(OC)nc2)ncc1C#CCCCNC(=O)[C@H](C)N(C)C(=O)/C=C/CN(C)C [Compound 7-23] | 10 to 100 | < 10 | < 10 | –
CCCNc1nc(Nc2ccc(C(N)=O)cc2)ncc1C(=O)NC1CCCC(NC(=O)CNC(=O)/C=C/CN(C)C)C1 (stereo not drawn) [Compound 3-3] | 10 to 100 | < 10 | 10 to 100 | –
CCCNc1nc(Nc2ccc(C(N)=O)cc2)ncc1C(=O)Nc1cccc(NC(=O)[C@H](C)N(C)C(=O)/C=C/CN(C)CCO)c1 [Compound 4-9] | < 10 | < 10 | < 10 | –
CNc1nc(Nc2cccc(C#N)c2)ncc1C#CCCCNC(=O)[C@@H]1CCCN1C(=O)/C=C/CN(C)C [Compound 7-76] | < 10 | < 10 | < 10 | –
CCCNc1nc(Nc2ccc(C(N)=O)cc2)ncc1C(=O)N[C@H]1CCC[C@H](Nc2ccccc2NC(=O)/C=C/CN(C)C)C1 [Compound 3-27] | – | < 10 | – | IC50 (Molm-13 cells; Molm-13, 72 hours culture, ATPlite, GI50 per method): 10 to 100 nM; IC50 (MV4-11 cells; MV4-11, 72 hours culture, ATPlite, GI50 per method): 10 to 100 nM
CCCNc1nc(Nc2ccc(F)cc2)ncc1C#CCCCNC(=O)CN(C)C(=O)/C=C/CN(C)C [Compound 7-8, (E)-4-(Dimethylamino)-N-(2-((5-(2-((4-fluorophenyl)amino)-4-(propylamino)pyrimidin-5-yl)-4-pentyn-1-yl)amino)-2-oxoethyl)-N-methyl-2-butenamide] | < 10 | < 10 | < 10 | –
CCCNc1nc(Nc2cccc(F)c2)ncc1C#CCCCNC(=O)[C@H](C)N(C)C(=O)/C=C/CN(C)C [Compound 7-1, (S,E)-4-(dimethylamino)-N-(1-((5-(2-((3-fluorophenyl)amino)-4-(propylamino)pyrimidin-5-yl)-4-pentyn-1-yl)amino)-1-oxopropan-2-yl)-N-methyl-2-butenamide] | < 10 | < 10 | < 10 | –

Now from value to compound, other results behind:

IC50 (Molm-13 cells; [2]) [nM] | IC50 [1, 3] [nM] | IC50 (MV4-11 cells; [4]) [nM] | Structure (SMILES) | other results
< 10 | < 10 | < 10 | CCCNc1nc(Nc2cccc(F)c2)ncc1-c1cn(CCNC(=O)[C@H](C)N(C)C(=O)/C=C/CN(C)C)nn1 [Compound 17-2, (S,E)-4-(dimethylamino)-N-(1-((2-(4-(2-((3-fluorophenyl)amino)-4-(propylamino)pyrimidin-5-yl)-1H-1,2,3-triazol-1-yl)ethyl)amino)-1-oxopropan-2-yl)-N-methyl-2-butenamide] | –
< 10 | < 10 | < 10 | C[C@@H](C(=O)NCCCC#Cc1cnc(Nc2ccc(C#N)cc2)nc1NC1CC1)N(C)C(=O)/C=C/CN(C)C [Compound 10-25] | –
< 10 | < 10 | < 10 | CNc1nc(Nc2ccnc(OC)c2)ncc1C#CCCCNC(=O)[C@H](C)N(C)C(=O)/C=C/CN(C)C [Compound 9-39] | –
10 to 100 | 10 to 100 | 10 to 100 | CCCNc1nc(Nc2cnc(C)c(C)c2)ncc1C#CCCCNC(=O)[C@H](C)N(C)C(=O)/C=C/CN(C)C [Compound 21-18] | –
< 10 | < 10 | < 10 | CCCN(CCC)c1nc(Nc2ccc(C#N)cc2)ncc1C#CCCCNC(=O)[C@H](C)N(C)C(=O)/C=C/CN(C)C [Compound 10-16] | –
< 10 | < 10 | < 10 | CCCNc1nc(Nc2ccc(C#N)cc2)ncc1C#C[C@@H]1CCC[C@H](NC(=O)CN(C)C(=O)/C=C/CN(C)C)C1 [Compound 13-6] | –
< 10 | < 10 | < 10 | CNc1nc(Nc2ccc(F)cc2)ncc1C#C[C@H]1C[C@@H](NC(=O)[C@H](C)N(C)C(=O)/C=C/CN(C)C)C1 [Compound 13-19, (E)-4-(Dimethylamino)-N—((S)-1-(((1S,3R)-3-((2-((4-fluorophenyl)amino)-4-(methylamino)pyrimidin-5-yl)ethynyl)cyclobutyl)amino)-1-oxopropan-2-yl)-N-methyl-2-butenamide] | –
< 10 | < 10 | < 10 | CCCN(c1nc(Nc2ccnc(F)c2)ncc1C#CCCCNC(=O)[C@H](C)N(C)C(=O)/C=C/CN(C)C)C1CC1 [Compound 9-14] | –
10 to 100 | < 10 | < 10 | CCCNc1nc(Nc2cccc(OC(F)(F)F)c2)ncc1C#CCCCNC(=O)[C@H](C)N(C)C(=O)/C=C/CN(C)C [Compound 11-10] | –
< 10 | < 10 | < 10 | CCCNc1nc(Nc2ccnc(OC)c2)ncc1C#CCCCNC(=O)[C@@H]1CCCN1C(=O)/C=C/CN(C)C [Compound 9-35, (S,E)-1-(4-(Dimethylamino)-2-butenoyl)-N-(5-(2-((2-methoxypyridin-4-yl)amino)-4-(propylamino)pyrimidin-5-yl)-4-pentyn-1-yl)pyrrolidine-2-carboxamide] | –
< 10 | < 10 | < 10 | C[C@@H](C(=O)NCCC(C)(C)C#Cc1cnc(Nc2ccnc(F)c2)nc1NC1CC1)N(C)C(=O)/C=C/CN(C)C [Compound 9-20] | –
